Assay results published in ChEMBL document CHEMBL1143792, “Natural dibenzoxazepinones from leaves of Carex distachya: Structural elucidation and radical scavenging activity” (Bioorg Med Chem Lett, 2007).

Tests used:
[1] = DPPH radical scavenging activity at 0.1 mg/ml; assay type: functional
[2] = Nitric oxide radical scavenging activity at 0.1 mg/ml; assay type: functional

`COc1cc2c(c(OC)c1C)C(=O)Nc1ccc(O)c(C)c1O2` showed an Activity [1] of 25% and an Activity [2] of 63%.

`O=C1O[C@H]([C@@H](O)CO)C(O)=C1O` gave an Activity [2] of 66%.

In the case of `COc1cc2c(c(O)c1C)C(=O)Nc1ccc(O)cc1O2`, the Activity [2] is reported as 59%.
